This note sets out measurements from patent US4363812A, “3-(Tetrazol-5-yl), 4-methyl-8-alkoxy coumarins and anti-allergic compositions thereof” (priority 1978, dated 1982).

One series concerns mice. Kind of series: acute toxicity, oral, in mice. Format: in vivo. Particulars: Table 4; oral, female Slc: ddy mice, 6 days observation, Litchfield-Wilcoxon; 8640 min. The protocol: (§1) Moreover, the introduction of substituent groups such as an alkoxyl group, an alkenyloxy group and hydroxyl group to the 5, 6, 7 or 8 position of the coumarin ring brings the decrease of toxicity.
(§2) With respect to the present 3-(1H-tetrazol-5-yl)coumarin derivatives, there was tested acute toxicity in mice.
(§3) After normal female Slc: ddy mice 4 weeks old were purchased and fed preliminarily in this lavoratory for a week, these mice weighing 25-27 g. were used in the test. The present compounds to be tested, were suspended in a 10% gum arabic solution and administered orally […]. body weight to mice. Each dose level was given to a group of ten animals and the survivors were kept under observation for 6 days. The numbers of dead animals were counted and the LD50 values in mg./kg. body weight were calculated by the method of Litchfield-Wilcoxon.

Series [1] concerns passive cutaneous anaphylaxis (PCA) mediated by homocytotropic antibodies (HTA). The experiment in a line: passive cutaneous anaphylaxis (PCA) test, oral, in rats. Type of series: in vivo, rat (Wistar). Particulars: for minimal effective dose: Rattus norvegicus. On the procedure: With respect to the present 3-(1H-tetrazol-5-yl)coumarin derivatives, there was tested antiallergic activity concerning passive cutaneous anaphylaxis (PCA) mediated by homocytotropic antibodies (HTA) in rats.
(i) Preparation of antisera
2,4-Dinitrophenyl-coupled ascaris extract (DNP-As) used as antigen, was prepared according to the methods of Strejan et al [cf. J. Immunol., Vol. 98, 893(1967)] and Eisen [cf. J. Amer. Chem. Soc., Vol. 75. 4593(1953)]. Antisera containing HTA were prepared in rats according to the method of Tada and Okumura [cf. J. Immunol., Vol. 106, 1002(1971)] as follows:
Female wister rats weighing 180 to 200 g. were splenectomized and several days later immunized by injecting into all four footpads a total of 1 mg. of DNP-As mixed with 10^10 Bordetella pertussis. After 5 days, 0.5 mg. of DNP-As alone was injected subcutaneously into the back of rats. Eight days after the first immunization, blood was collected by aortic puncture under ether anaesthesea and antisera obtained by these procedures were pooled and stored at -80° C.
The titer of the pooled autiserum was determined in rats by the 72 hr. PCA which method was described in the following item (ii), i.e. the highest dilution of antiserum producing a diameter of approximately 5 mm. was usually 1:500.
(ii) Assessment of PCA in rats
Normal wister rats weighing 140 to 160 g. were sensitized passively by injection intradermal on the shaved back skin 0.05 ml. of the diluted antisera (1:30). After 72 hours, the animals were injected intravenously 1 ml. of physiological salt solution containing 2 mg. DNP-As and 2.5 mg. Evans' blue.
The present compounds to be tested were given orally 30 minutes before antigen challenge. The animals were exsanguinated 30 minutes after challenge with the antigens and the skins were exfoliated. The intensities of PCA were evaluated by measuring the amount of leaked dye. The amount of dye leaked as a result of PCA was extracted according to the method of Harada et al [cf. Jpn. J. Allergol., Vol. 15, 1(1966)] and measured photometrically.

Series [2] can be described thus: acute toxicity, oral, in mice. Format: in vivo. As to conditions: mouse, in vivo, po. On the procedure: as §1, §2, §3
Another series has as its system experimental asthma. Kind of series: model of experimental asthma in animals. Format: in vivo. As to conditions: oral administration.

Structures are written as SMILES. Structures can show the parent of a compound that is named as a salt. Where two headings read alike, the source gives them in different places.

Broadly, the LD50 is the dose at which mortality reaches 50%. In the series on mice, `CCCCOc1cccc2cc(-c3nnn[nH]3)c(=O)oc12` [Example 31, Sodium salt of 8-n-butoxy-3-(1H-tetrazol-5-yl)coumarin] registered an LD50 of 2470 mg/kg. The “MED (minimum effect dose)” value in series [1] (Table 3, oral 30 minutes before antigen challenge, rats, lowest dose significantly decreasing leaked dye vs control) was determined as 1.56 mg/kg.

Regarding `CCCCCCOc1cccc2cc(-c3nnn[nH]3)c(=O)oc12` [Example 10, 8-n-Hexyloxy-3-(1H-tetrazol-5-yl)coumarin], the LD50 at 144 h in series [2] (LD50 (50% lethal dose), Table 1, orally in mice) amounted to 2650 mg/kg; in series [2] (Table 4, oral, female Slc: ddy mice, 6 days observation, Litchfield-Wilcoxon, read-out: LD50) it was 2650 mg/kg. Also, the “therapeutic effect in experimental asthma” value with experimental asthma is on record as “shows a therapeutic effect”. Further, the minimal effective dose in series [1] (po, read-out: MED (minimum effective dose)) was determined as 1.56 mg/kg; in series [1] (read-out: MED (minimum effect dose)), 1.56 mg/kg.
